Results as given in ChEMBL document CHEMBL2040791, “Synthesis of novel 6-(4-substituted piperazine-1-yl)-9-(β-D-ribofuranosyl)purine derivatives, which lead to senescence-induced cell death in liver cancer cells” (J Med Chem, 2012).
Calls of active or inactive are those of the source. The rule behind the calls is not given here.

Tests used:
Huh-7 [1] = assay: Cytotoxicity against human HuH7 cells after 72 hrs by SRB assay; assay type: functional, cell-based
HepG2 [2] = assay: Cytotoxicity against human HepG2 cells after 72 hrs by SRB assay; assay type: functional, cell-based
HCT-116 = assay: Cytotoxicity against human HCT116 cells after 72 hrs by SRB assay; assay type: functional, cell-based
MCF7 = assay: Cytotoxicity against human MCF7 cells after 72 hrs by SRB assay; assay type: functional, cell-based
[3] = Cytotoxicity against human Mahlavu cells after 72 hrs by SRB assay; assay type: functional, cell-based
[4] = Cytotoxicity against human FOCUS cells after 72 hrs by SRB assay; assay type: functional, cell-based
Huh-7 [5] = assay: Induction of senescence in human HuH7 cells assessed as increase in senescence associated beta-galactosidase activity at 25 ng/mL after 3 to 6 days by X-GAL based staining method; assay type: functional, cell-based
Huh-7 [6] = assay: Antiproliferative activity in human HuH7 cells assessed as inhibition of BrdU incorporation at 25 ng/mL after 3 to 6 days; assay type: functional, cell-based
Huh-7 [7] = assay: Inhibition of protein kinase in human HuH7 cells assessed as increase in ATP level at 5 uM after 72 hrs by Kinase-Glo assay; assay type: cell-based
Huh-7 [8] = assay: Inhibition of protein kinase in human HuH7 cells assessed as increase in ATP level after 72 hrs by Kinase-Glo assay; assay type: cell-based
Huh-7 [9] = assay: Induction of apoptosis in human HuH7 cells assessed as PARP cleavage into 89 kDa and 24 kDa fragments at 7.8 uM after 72 hrs by Western blot analysis; assay type: functional, cell-based
HepG2 [10] = assay: Induction of apoptosis in human HepG2 cells assessed as PARP cleavage into 89 kDa and 24 kDa fragments at 5.7 uM after 72 hrs by Western blot analysis; assay type: functional, cell-based
Mahlavu [11] = assay: Induction of apoptosis in human Mahlavu cells assessed as PARP cleavage into 89 kDa and 24 kDa fragments at 9.2 uM after 72 hrs by Western blot analysis; assay type: functional, cell-based
FOCUS [12] = assay: Induction of apoptosis in human FOCUS cells assessed as PARP cleavage into 89 kDa and 24 kDa fragments at 5.2 uM after 72 hrs by Western blot analysis; assay type: functional, cell-based
Huh-7 [13] = assay: Induction of necrosis in human HuH7 cells assessed as PARP cleavage into 50 kDa fragment at 7.8 uM after 72 hrs by Western blot analysis; assay type: functional, cell-based
HepG2 [14] = assay: Induction of necrosis in human HepG2 cells assessed as PARP cleavage into 50 kDa fragment into at 5.7 uM after 72 hrs by Western blot analysis; assay type: functional, cell-based
Mahlavu [15] = assay: Induction of necrosis in human Mahlavu cells assessed as PARP cleavage into 50 kDa fragment at 9.2 uM after 72 hrs by Western blot analysis; assay type: functional, cell-based
FOCUS [16] = assay: Induction of necrosis in human FOCUS cells assessed as PARP cleavage into 50 kDa fragment at 5.2 uM after 72 hrs by Western blot analysis; assay type: functional, cell-based
Huh-7 [17] = assay: Induction of senescence in human HuH7 cells assessed as increase in senescence associated beta-galactosidase activity at cytotoxic IC50 to IC100 concentration after 3 to 6 days by X-GAL based staining method; assay type: functional, cell-based
Huh-7 [18] = assay: Growth inhibition of human HuH7 cells at 5 to 30 uM by real-time cell electronic sensing assay; assay type: functional, cell-based; conditions: TDE = time-dependent effect
HepG2 [19] = assay: Growth inhibition of human HepG2 cells at 5 to 30 uM by real-time cell electronic sensing assay; assay type: functional, cell-based; conditions: TDE = time-dependent effect
Huh-7 [20] = assay: Antiproliferative activity in human HuH7 cells assessed as inhibition of BrdU incorporation at cytotoxic IC50 to IC100 concentration after 3 to 6 days; assay type: functional, cell-based
Huh-7 [21] = assay: Induction of p15INK4b protein expression in human HuH7 cells assessed as inhibition of cyclinD1/[…]-mediated Rb phosphorylation at cytotoxic IC50 to IC100 concentration after 6 days by Western blot analysis; assay type: functional, cell-based
Huh-7 [22] = assay: Induction of p15INK4b protein expression in human HuH7 cells at cytotoxic IC50 to IC100 concentration by Western blot analysis; assay type: functional, cell-based; conditions: TDE = time-dependent effect
Huh-7 [23] = assay: Induction of p15INK4b protein expression in human HuH7 cells after 3 to 6 days by Western blot analysis; assay type: functional, cell-based
Mahlavu [24] = assay: Growth inhibition of human Mahlavu cells at 5 to 30 uM by real-time cell electronic sensing assay; assay type: functional; conditions: TDE = time-dependent effect
FOCUS [25] = assay: Growth inhibition of human FOCUS cells at 5 to 30 uM by real-time cell electronic sensing assay; assay type: functional, cell-based; conditions: TDE = time-dependent effect
Huh-7 [26] = assay: Growth inhibition of human HuH7 cells measured every 30 mins by real-time cell electronic sensing assay; assay type: functional, cell-based
HepG2 [27] = assay: Growth inhibition of human HepG2 cells measured every 30 mins by real-time cell electronic sensing assay; assay type: functional, cell-based
Mahlavu [28] = assay: Growth inhibition of human Mahlavu cells measured every 30 mins by real-time cell electronic sensing assay; assay type: functional
FOCUS [29] = assay: Growth inhibition of human FOCUS cells measured every 30 mins by real-time cell electronic sensing assay; assay type: functional, cell-based
[30] = Homo sapiens, Huh-7, 72 h, read-out: IC50
[31] = Homo sapiens, HepG2, 72 h, read-out: IC50
[32] = Homo sapiens, HCT-116, 72 h, read-out: IC50
[33] = Homo sapiens, MCF7, 72 h, read-out: IC50
[34] = huh-7, TDE = time-dependent effect
[35] = hepg2, TDE = time-dependent effect
[36] = hct-116, TDE = time-dependent effect
[37] = mcf7, TDE = time-dependent effect

O=c1[nH]cc(F)c(=O)[nH]1 [FLUOROURACIL]
IC50 (Huh-7 [1]; [30]): 30.7 µM
IC50 (HepG2 [2]; [31]): 5 µM
IC50 (HCT-116; [32]): 6 µM
IC50 (MCF7; [33]): 3.5 µM
IC50 [3]: 10 µM
IC50 [4]: 7.6 µM

CC[C@@]1(O)C(=O)OCc2c1cc1n(c2=O)Cc2cc3ccccc3nc2-1 [CAMPTOTHECIN]
IC50 (Huh-7 [1]; [30]): < 0.1 µM
IC50 (HepG2 [2]; [31]): < 0.1 µM
IC50 (HCT-116; [32]): < 0.1 µM
IC50 (MCF7; [33]): < 0.1 µM
IC50 [3]: < 0.1 µM
IC50 [4]: < 0.1 µM

COc1cccc2c1C(=O)c1c(O)c3c(c(O)c1C2=O)C[C@@](O)(C(=O)CO)C[C@@H]3O[C@H]1C[C@H](N)[C@H](O)[C@H](C)O1
Activity (Huh-7 [5]): Active
Activity (Huh-7 [6]): Active

OC[C@H]1O[C@@H](n2cnc3c(N4CCN(C(c5ccccc5)c5ccccc5)CC4)ncnc32)[C@H](O)[C@@H]1O
IC50 (Huh-7 [1]; [30]): 44.4 µM
IC50 (Huh-7 [1]; [34]): tde
IC50 (HepG2 [2]; [31]): 63.5 µM
IC50 (HepG2 [2]; [35]): tde
IC50 (HCT-116; [32]): 48.5 µM
IC50 (HCT-116; [36]): tde
IC50 (MCF7; [33]): 40.1 µM
IC50 (MCF7; [37]): tde
IC50 [3]: 92.7 µM
IC50 [4]: > 100 µM

OC[C@H]1O[C@@H](n2cnc3c(N4CCN(c5ccc(F)cc5)CC4)ncnc32)[C@H](O)[C@@H]1O
IC50 (Huh-7 [1]; [30]): 49.7 µM
IC50 (Huh-7 [1]; [34]): tde
IC50 (HepG2 [2]; [31]): > 100 µM
IC50 (HepG2 [2]; [35]): tde
IC50 (HCT-116; [32]): > 100 µM
IC50 (HCT-116; [36]): tde
IC50 (MCF7; [33]): > 100 µM
IC50 (MCF7; [37]): tde
IC50 [3]: > 100 µM
IC50 [4]: > 100 µM

OC[C@H]1O[C@@H](n2cnc3c(N4CCN(c5ccc(Cl)c(Cl)c5)CC4)ncnc32)[C@H](O)[C@@H]1O
IC50 (Huh-7 [1]; [30]): 7.1 µM
IC50 (Huh-7 [1]; [34]): tde
IC50 (HepG2 [2]; [31]): 6.1 µM
IC50 (HepG2 [2]; [35]): tde
IC50 (HCT-116; [32]): 8.4 µM
IC50 (HCT-116; [36]): tde
IC50 (MCF7; [33]): 9.7 µM
IC50 (MCF7; [37]): tde
IC50 [3]: 7 µM
IC50 [4]: 5.5 µM

CSC[C@H]1O[C@@H](n2cnc3c(N)ncnc32)[C@H](O)[C@@H]1O
inhibition (Huh-7 [7]): Active

OC[C@H]1O[C@@H](n2cnc3c(N4CCN(c5ccccc5)CC4)ncnc32)[C@H](O)[C@@H]1O
IC50 (Huh-7 [1]; [30]): > 100 µM
IC50 (Huh-7 [1]; [34]): tde
IC50 (HepG2 [2]; [31]): > 100 µM
IC50 (HepG2 [2]; [35]): tde
IC50 (HCT-116; [32]): > 100 µM
IC50 (HCT-116; [36]): tde
IC50 (MCF7; [33]): > 100 µM
IC50 (MCF7; [37]): tde
IC50 [3]: > 100 µM
IC50 [4]: > 100 µM

OC[C@H]1O[C@@H](n2cnc3c(N4CCN(c5ccc(C(F)(F)F)cc5)CC4)ncnc32)[C@H](O)[C@@H]1O
IC50 (Huh-7 [1]; [30]): 7.8 µM
IC50 (Huh-7 [1]; [34]): tde
IC50 (HepG2 [2]; [31]): 5.7 µM
IC50 (HepG2 [2]; [35]): tde
IC50 (HCT-116; [32]): 6.7 µM
IC50 (HCT-116; [36]): tde
IC50 (MCF7; [33]): 7.5 µM
IC50 (MCF7; [37]): tde
inhibition (Huh-7 [8]): Dose-dependent effect
Activity (Huh-7 [9]): inactive
Activity (HepG2 [10]): inactive
Activity (Mahlavu [11]): inactive
Activity (FOCUS [12]): inactive
IC50 [3]: 9.2 µM
IC50 [4]: 5.2 µM
Activity (Huh-7 [13]): inactive
Activity (HepG2 [14]): inactive
Activity (Mahlavu [15]): inactive
Activity (FOCUS [16]): inactive
Activity (Huh-7 [17]): Active
growth inhibition (GI) (Huh-7 [18]): tde
growth inhibition (GI) (HepG2 [19]): tde
Activity (Huh-7 [20]): Active
Activity (Huh-7 [21]): Active
Activity (Huh-7 [22]): tde
Activity (Huh-7 [23]): Dose-dependent effect
growth inhibition (GI) (Mahlavu [24]): tde
growth inhibition (GI) (FOCUS [25]): tde
growth inhibition (GI) (Huh-7 [26]): Dose-dependent effect
growth inhibition (GI) (HepG2 [27]): Dose-dependent effect
growth inhibition (GI) (Mahlavu [28]): Dose-dependent effect
growth inhibition (GI) (FOCUS [29]): Dose-dependent effect
